Marks after values point to notes of the source that are not given here.
System: cassava leaf explants
Experiment: Primary somatic embryogenesis from leaf explants (mature embryos per cultured leaf explant)
Type: cell-based
Conditions: for leaf explants that formed ME / number of ME/CLE: maximum
Experimental: The procedure to obtain FEC is outlined in FIG. 1. 1t starts with the induction of primary embryos. Primary embryos are formed in a two step procedure. In the first step explants are cultured on medium supplemented with salts and vitamins (preferably Murashige and Skoog (1962)), a carbohydrate source (for example 20 g/l sucrose) and an auxin (e.g. 1–8 mg/l picloram, or dicamba or 2,4-D) for the initiation of embryos. After 10 to 15 days on this first medium bipolar torpedo shaped embryos are formed. […] After transfer of the explants with torpedo shaped embryos to a step 2 medium (the same medium as step 1 but without an auxin, with eventually the addition of cytokinins) the torpedo shaped embryos become mature.
In the presently used protocol there is genotypic variation in the number of mature embryos formed per cultured explant. The genotypes M.Col1505, M.Col22 and Gading gave the highest numbers of mature embryos per cultured leaf explant (ME/CLE). However, the number of mature embryos formed was low. In M.Col22 a maximum of 22% of the leaf explants isolated from in vitro grown plants and cultured on a step 1 medium with 4 mg/l 2,4-D, formed ME with a maximum number of 0.8 ME/CLE. On a step 1 medium with 8 mg/l 2,4-D a maximum of 49% of the leaf explants formed ME with a maximum number of 3.5 ME/CLE.
Mathews et al. (1993) improved the efficiency of primary embryogenesis in the genotype M.Co11505 by transferring explants after 15 days of step 1 medium to a growth regulator-free medium supplemented with 0.5% charcoal. On this medium maturation was improved and as a result the number of mature embryos increased from 0.4 in the control to 3,4 ME/CLE. The best results were obtained if donor plants were pretreated with auxins as 2,4-D or picloram or Dicamba. For this, plants were grown in liquid MS20 medium and supplied with the auxin (final concentration 8 mg/l) after 12 days of growth. Two days later leaf explants were isolated of the donor plants and cultured on step 1 medium with 8 mg/l 2,4-D, picloram or Dicamba.

[1] = M.Col22, step 1 medium with 4 mg/l 2,4-D
[2] = M.Col22, step 1 medium with 8 mg/l 2,4-D

With `O=C(O)COc1ccc(Cl)cc1Cl` [2,4-D, 2,4-dichlorophenoxyacetic acid] the “leaf explants that formed ME” value [1] was no more than 22%, the “number of ME/CLE” value [1] was no more than 0.8 ME/CLE and the “leaf explants that formed ME” value [2] was no more than 49%. The “number of ME/CLE” value [2] was no more than 3.5 ME/CLE, the “primary mature embryos per cultured leaf explant after 2,4-D pretreatment” value (genotype M.Col22, pretreatment yes) was 9.4 # mature embryos per cultured leaf explant and the “primary mature embryos per cultured leaf explant after 2,4-D pretreatment” value (genotype TMS 4(2)1244, pretreatment yes) was 0 # mature embryos per cultured leaf explant. The “primary mature embryos per cultured leaf explant after 2,4-D pretreatment” value (genotype TMS 30001, pretreatment yes) was 0 # mature embryos per cultured leaf explant, the “primary mature embryos per cultured leaf explant after 2,4-D pretreatment” value (genotype TMS 30211, pretreatment yes) was 0 # mature embryos per cultured leaf explant and the “primary mature embryos per cultured leaf explant after 2,4-D pretreatment” value (genotype TMS 30395, pretreatment yes) was 0.1 # mature embryos per cultured leaf explant. The “primary mature embryos per cultured leaf explant after 2,4-D pretreatment” value (genotype TMS 30555, pretreatment yes) was 0.7 # mature embryos per cultured leaf explant, the “primary mature embryos per cultured leaf explant after 2,4-D pretreatment” value (genotype TMS 30572, pretreatment yes) was 0 # mature embryos per cultured leaf explant and the “primary mature embryos per cultured leaf explant after 2,4-D pretreatment” value (genotype TMS 50395, pretreatment yes) was <0.1 # mature embryos per cultured leaf explant. For the same compound, the “primary mature embryos per cultured leaf explant after 2,4-D pretreatment” value (genotype TMS 60444, pretreatment yes) was 1.1 # mature embryos per cultured leaf explant, the “primary mature embryos per cultured leaf explant after 2,4-D pretreatment” value (genotype TMS 60506, pretreatment yes) was <0.1 # mature embryos per cultured leaf explant and the “primary mature embryos per cultured leaf explant after 2,4-D pretreatment” value (genotype TMS 90059, pretreatment yes) was <0.1 # mature embryos per cultured leaf explant. For the same compound, the “primary mature embryos per cultured leaf explant after 2,4-D pretreatment” value (genotype TMS 90853, pretreatment yes) was 0.2 # mature embryos per cultured leaf explant.
